Test results taken from patent publication US8092790B2, “Methods of making formulations to affect insect behavior and/or bird behavior” (Bug Buster, Ltd., priority 2003, dated 2012).

Legend:
[1] = tested on: bees (Panurgus banksianus, P. calacaratus); details: in vivo; cited from earlier work
bees (Apis mellifera L.) = details: in small groups; cited from earlier work
birds = details: in vivo; cited from earlier work
[2] = 25° C.; cited from earlier work
[3] = tested on: mosquito (Aedes aegyptis); test: Mosquito repellency on human subject; assay type: in vivo; details: second trial; methyl anthranilate 0.00312%, DEET 0.24%; untreated head covered within one minute
Description: In these trials, DEET was provided in the commercially available product DEEP WOODS OFF™ repellent (S.C. Johnson & Son, Inc., Racine, Wis.), which has approximately 28.5% active ingredient; 1.5% other isomers and 70% inert ingredients.
In a first trial, a human subject was exposed to a mosquito (Aedes aegyptis) rich environment without application of the exemplary compound or DEET. Within less than one minute the subject was covered with the insects. In a second trial, the subject sprayed one unclothed arm with the exemplary compound at a rate of 0.00312% and the other unclothed arm with DEET at a concentration of 0.24%. The subject's head remained untreated. Upon returning to the test area, the subject's head was covered with the insects within one minute. […] In a third trial the subject, after removing the DEET from his/her body, reapplied the exemplary compound to unclothed arms, head and neck before returning to the test area. The subject returned to and remained in the test area for more than one hour without any of the insects landing on his/her arms, hands and head while numerous insects were observed on the clothed portions of his/her anatomy.

[4] = tested on: sunflower seed weevils (Smicronyx spp.); test: Comparison to DEET product, drawing weevils out of sunflower heads; assay type: in vivo
Description: DEET is often used by entomologists in standard procedures to draw sunflower seed weevils (Smicronyx spp.) out of the heads of sunflowers. In this trial, DEET was provided in the commercially available product DEEP WOODS OFF™ repellent (S.C. Johnson and Son's, Racine, Wis.), which has approximately 28.5% active ingredient; 1.5% other isomers and 70% inert ingredients. Forty-two flowers were randomly selected from interiors of three fields. One-half of the flowers were sprayed with the DEET containing repellent while the remaining flowers were sprayed with the exemplary compound at a concentration of approximately 0.00312% methyl anthranilate, which was combined with long chained fatty acids. The number of sunflower weevils was recorded.

[5] = tested on: seed weevil (Smicronyx spp.); test: Comparison to 24% DEET on sunflower seed heads; assay type: in vivo; details: composition with 0.006% methyl anthranilate; DEET as 24% solution
Description: An exemplary composition was compared to N,N-Diethyl-m-toluamide (DEET). The exemplary composition included an exemplary compound, methyl anthranilate (e.g., BIRDSHIELD™ at 0.006% methyl anthranilate), and an insecticide, esfenvalerate (e.g., ASANA™). A 24% DEET solution is often used in a standard evaluation process by entomologists for evaluating seed weevil (Smicronyx spp.) infestations.

house fly = details: in vivo; cited from earlier work
bees (Apidae, Psithyrus) = details: in vivo; cited from earlier work
[6] = tested on: green lacewing (Chrysopa nigricornis Bermeister); details: in vivo; cited from earlier work
Aenictus = details: in vivo; cited from earlier work
sand fly = details: in vivo; cited from earlier work
mosquito = details: in vivo; cited from earlier work
[7] = tested on: Orius tristicolor (White); details: on sticky cards; cited from earlier work
[8] = tested on: Deraeocoris brevis (Uhler); details: on sticky cards; cited from earlier work

CC(C)=CCC/C(C)=C\C=O [neral]
effect on behavior of bees [1]: affect behavior of bees

CC(C)=CCC/C(C)=C/C(=O)O [geranolic acid]
effect on behavior of bees [1]: affect behavior of bees

CC(=O)c1ccccc1N [o-aminoacetophone, o-aminoacetophenone]
effect on bees (bees (Apis mellifera L.)): repels bees | repellency to birds (birds): exhibit repellency to birds

CC(C)C(C(=O)OC(C#N)c1cccc(Oc2ccccc2)c1)c1ccc(Cl)cc1 (single isomer, unassigned; (+)) [Esfenvalerate, (+)Alpha-cyano-3-phenoxybenzyl-(+)-alpha-(4-chlorophenyl)isovalerate]
water solubility [2]: < 0.3 µg/mL

CCN(CC)C(=O)c1cccc(C)c1 [DEET, N,N-Diethyl-m-toluamide, reference compound]
mosquitoes on treated unclothed arm [3]: No mosquitoes were found | Number of insects, Mean ([4]; Field No. 1): 4.4 | Number of insects, Total ([4]; Field No. 1): 44 | Number of insects, Mean ([4]; Field No. 2): 12 | Number of insects, Total ([4]; Field No. 2): 37 | Number of insects, Mean ([4]; Field No. 3): 10.3 | Number of insects, Total ([4]; Field No. 3): 86 | water solubility [2]: approximately 912 mg/L | insects observed in sprayed sunflower seed heads [5]: No insects were observed

CC(C)=CCC/C(C)=C\CO [nerol]
effect on behavior of bees [1]: affect behavior of bees

CC=CC(C)C(=O)OCC (centres unmarked) [ethyl ester of 2-methyl-3-pentenoic acid]
effect on house fly (house fly): house fly attractant

CC(C)=CCC/C(C)=C/CO [geraniol, 3,7-dimethyl-2,6-octadien-I-ol]
effect on behavior of bees [1]: affect behavior of bees

CCCCCCCO [1-heptanol]
effect on behavior of bees [1]: affect behavior of bees

OCCc1ccccc1 [2-phenyl-ethanol]
effect on behavior of bees [1]: affect behavior of bees

CC(C)=CCCC(C)CCO (centres unmarked) [3,7-dimethyl-6-octen-1-ol]
effect on behavior of bees (bees (Apidae, Psithyrus)): act as a territory marker

COC(=O)c1ccccc1O [methyl salicylate]
attraction of green lacewing [6]: attract

COC(=O)c1cccnc1 [methyl nicotinate]
semiochemical function for Aenictus (Aenictus): trail semiochemicals

bisabolene
effect on house fly (house fly): house fly repellent

CC(C)=CCC/C(C)=C/C=O [geranial]
effect on behavior of bees [1]: affect behavior of bees

CC1=CCC(C(C)(C)O)CC1 (stereo not drawn) [alpha-terpineol]
effect on sand fly (sand fly): sand fly attractant

CCCCCCCCCC(C)OC(C)=O (centres unmarked) [2-undecyl acetate]
effect on mosquito (mosquito): mosquito attractant

CC/C=C/CCOC(C)=O [(E)-3-hexenyl acetate]
attraction of Orius tristicolor [7]: may be attracted | attraction of Deraeocoris brevis [8]: may be attracted

CC(C)=CCC/C(C)=C\C(=O)O [nerolicacid]
effect on behavior of bees [1]: affect behavior of bees
